Measurements as given in patent EP0374249A1, “METHOD OF STERILIZING PLANT POLLEN” (VSESOJUZNY NAUCHNO-ISSLEDOVATELSKY INST. SELSKOKHOZYAISTV. …, priority 1988, dated 1989).

How the values were obtained:
[1] = tested on: diploidem Roggen Sorte Talovskaya 12; assay: Field test of pollen sterilisation, diploid rye Talovskaya 12; type: in vivo; details: 1% aqueous emulsion, 6 kg/ha; for Prozentsatz der Sterilität / Anzahl von Körnern der Ähre bei freier Bestäubung / Anzahl von Körnern der Ähre im Isolator: period V of organogenesis; for Anzahl von Körnern der Ähre bei freier Bestäubung: free pollination; for Anzahl von Körnern der Ähre im Isolator: isolated ears; for Prozentsatz des Ansetzens von Körnern bei freier Bestäubung: period V, non-isolated control ears = 100%
Source text: (§7) Mit dem Ahrenschiebe verwirklicht man die Isolierung von Hauptähren und anderen Stockwerken in Pergamentbeuteln. […] Bei Roggen schliesst man je Ähre 5 bis 7 verschiedene nebeneinander befindliche Pflanzen unter einen gemeinsamen Isolator ein. […] Der Sterilitätsprozentsatz (X) für Weizen, Roggen, Tritikale und Hirse wird nach folgender Formel [formula] ermittelt.
Pflanzen von diploidem Roggen Sorte Talovskaya 12 werden in der V. Periode der Organogenese (nach Kupermann) mit einer 1%igen wässrigen Emulsion von N-(2-Di- methylaminoäthyl)-maleaminsäure, N-(3-Dimethylaminopropyl)-maleaminsäure, N-Äthylmaleaminsäure, N-(2-Hydroxyäthyl)maleaminsäure, N-Karbamoylmaleaminsäure behandelt. Die Emulsion enthält 0,01 Masse% Dodezylsulfat und 0,1 Masse% Kalziumalkylbenzolsulfonat mit 12 bis _14 Kohlenstoffatomen. Der Verbrauch an Präparat beträgt 6 kg/ha. Als Kontrolle dienen Pflanzen, behandelt mit einem Verdünner ohne Sterilisationsmittel.

[2] = Toxicity test in animals (LD50); details: in vivo; animal test, per kg animal weight; species and route not given
Source text: Alle erfindungsgemässen N-substituierten Maleaminsäuren, welche als Sterilisationsmittel zur Verwendung kommen, waren auf die Toxizität im Tierversuch geprüft. Die Prüfergebnisse haben ergeben, dass die angegebenen Verbindungen von schwacher oder mittlerer Toxizität sind.

[3] = tested on: tetraploidem Roggen Sorte Ukrainskaya tetra; assay: Field test of pollen sterilisation, tetraploid rye Ukrainskaya tetra; type: in vivo; details: 1% aqueous emulsion, 6 kg/ha; for Prozentsatz der Sterilität / Anzahl von Körnern der Ähre bei freier Bestäubung / Anzahl von Körnern der Ähre im Isolator: period V of organogenesis; for Anzahl von Körnern der Ähre bei freier Bestäubung: free pollination; for Anzahl von Körnern der Ähre im Isolator: isolated ears; for Prozentsatz des Ansetzens von Körnern bei freier Bestäubung: period V, non-isolated control ears = 100%
Source text: (§1) Jedes Sterilisationsmittel wurde mindestens 5 Jahre lang geprüft.
(§2) Die Entwicklung der Perioden der Organogenese wird zytologischüberwacht. Die Behandlung von Pflanzen mit dem Sterilisationsmittel erfolgt am Anfang der fünften Periode der Organogenese nach Kupermann.
(§3) Mit dem Ahrenschiebe verwirklicht man die Isolierung von Hauptähren und anderen Stockwerken in Pergamentbeuteln. Bei Weizen und Tritikale werden Einzelisolatoren verwendet. Bei Roggen schliesst man je Ähre 5 bis 7 verschiedene nebeneinander befindliche Pflanzen unter einen gemeinsamen Isolator ein. Bei Hirse wird jede Rispe getrennt isoliert. Der Sterilitätsprozentsatz (X) für Weizen, Roggen, Tritikale und Hirse wird nach folgender Formel [formula] ermittelt.
(§4) Die Kornzahl in nicht isolierten ähren von Kontrollpflanzen wird bedingt für 100% Ansetzen bei freier Bestäubung angenommen.
(§5) Um zuverlässige Angaben zu erhalten, verwendet man 20 bis 25 Isolatoren jeder Wiederholung für Weisen und Tritikale, 10 bis 15 Gruppenisolatoren jeder Wiederholung für Roggen und Hirse.
Pflanzen von tetraploidem Roggen Sorte Ukrainskaya tetra werden in der V. Periode der Organogenese (nach Kupermann) mit einer 1%igen wässrigen Emulsion von N-(2-Dimethylaminoäthyl)maleaminsäure, N-(3-Dimethyl-aminopropu)maleaminsäure bzw. N-Karbamoylmaleaminsäure behandelt. Die Emulsion enthält 0,1 Masse% Kaliumalkylbenzolsulfonat mit 12 bis 14 Kohlenstoffatomen und 0,01 Masse% Dodezylsulfat. Der Verbrauch an Präparat beträgt 6 kg/ha. Als Kontrolle dienen Pflanzen, behandelt mit einem Verdünner ohne Sterilisationsmittel. Die Prüfergebnisse sind in der Tabelle 6 dargestellt.

[4] = tested on: Sommerweizens Sorte Botanicheskaya 4; assay: Field test of pollen sterilisation, spring wheat Botanicheskaya 4; type: in vivo, Sommerweizen; details: 1% aqueous emulsion, 6 kg/ha; for Prozentsatz der Sterilität / Anzahl von Körnern der Ähre bei freier Bestäubung / Anzahl von Körnern der Ähre im Isolator: period V of organogenesis; for Anzahl von Körnern der Ähre bei freier Bestäubung: free pollination; for Anzahl von Körnern der Ähre im Isolator: isolated ears; for Prozentsatz des Ansetzens von Körnern bei freier Bestäubung: period V, non-isolated control ears = 100%
Source text: Pflanzen des Sommerweizens Sorte Botanicheskaya 4 werden in der V. Periode der Organogenese (nach Kupermann) mit einer 1%igen Wässrigen Emulsion von N-(2-Dimethyl-aminoäthyl)-maleaminsäure, N-(3-Dimethylaminopropyl)-maleaminsäure, N-Äthylmaleaminsäure, N-(2-Hydroxyäthyl)-maleaminsäure bzw. N-Karbamoylmaleaminsäure behandelt. Die Emulsion enthält 0,5 Masse% Kalziumalkylbenzolsulfonat mit 12 bis 14 Kohlenstoffatomen und 0,01 Masse% Dimethylsulfoxid als Adjuvans. Der Verbrauch an Präparat beträgt 6 kg/ha. Als Kontrolle dienen Pflanzen, behandelt mit einem Verdünner ohne Sterilisationsmittel.

[5] = tested on: Hirse Sorte Mironovskoe 94; assay: Field test of pollen sterilisation, millet Mironovskoe 94; type: in vivo; details: 1% aqueous emulsion, 8 kg/ha; for Prozentsatz der Sterilität / Anzahl von Körnern der Rispe bei freier Bestäubung / Anzahl von Körnern der Rispe im Isolator: period V of organogenesis; for Anzahl von Körnern der Rispe bei freier Bestäubung: free pollination; for Anzahl von Körnern der Rispe im Isolator: isolated panicles; for Prozentsatz des Ansetzens von Körnern bei freier Bestäubung: period V, non-isolated control = 100%
Source text: (§6) Die gametozide Aktivität der erfindungsgemässen Sterilisationsmittel war im Feldversuch in verschiedenen Bodenklimatischen Zonen mit Teilstücken von 10 m^2 Grösse in drei- bis viermaliger Wiederholung nachgewiesen. Jedes Sterilisationsmittel wurde mindestens 5 Jahre lang geprüft.
as §2, §3, §4, §5
Pflanzen der Hirse Sorte Mironovskoe 94 werden in der V. Periode der Organogenese (nach Kupermann) mit einer 1%igen wässrigen Emulsion von N-(2-Dimethylaminoäthyl)maleaminsäure, N-(3-Dimethylaminopropyl)maleaminsäure, N-Äthylmaleaminsäure, N-(2-Hydroxyäthyl)maleaminsäure, N-Karbamoylmaleaminsäure behandelt. Die Emulsion enthält 0,01 Masse% Dimethylaulfoxid und 0,1 Masse% Kalziumalkylbenzolsulfonat mit 12 bis 14 Kohlenstoffatomen. Der Verbrauch an Präparat beträgt 8 kg/ha. Als Kontrolle dienen Pflanzen, behandelt mit einem Verdünner ohne Sterilisationsmittel. Die Prüfergebnisse sind in der Tabelle 12 dargestellt. […] Periode der Organogenese erhalten.

[6] = tested on: Sommerweizens Sorte Moskovskaya 35; assay: Field test of pollen sterilisation, spring wheat Moskovskaya 35; type: in vivo, Sommerweizen; details: 1% aqueous emulsion, 10 kg/ha; for Prozentsatz der Sterilität / Anzahl von Körnern der Ähre bei freier Bestäubung / Anzahl von Körnern der Ähre im Isolator: period V of organogenesis; for Anzahl von Körnern der Ähre bei freier Bestäubung: free pollination; for Anzahl von Körnern der Ähre im Isolator: isolated ears; for Prozentsatz des Ansetzens von Körnern bei freier Bestäubung: period V, non-isolated control ears = 100%
Source text: Pflanzen des Sommerweizens Sorte Moskovskaya 35 werden in V. Periode der Organogenese (nach Kupermann) mit einer 1%igen wässrigen Emulsion von N-(2-Dimethyl-aminoäthyl)-maleaminsäure, N-(3-Dimethylaminopropyl)-maleaminsäure, N-Äthylmaleaminsäure, N-(2-Hydroxyäthyl) maleaminsäure bzw. N-Karbamoylmaleaminsäure behandelt. Die Emulsion enthält 0,5 Masse% Kalziumalkylbenzolsulfonat mit 12 bis 14 Kohlenstoffatomen als Emulgierungsmittel und 0,01 Masse% Dimethylformamid als Adjuvans. Der Verbrauch an Präparat beträgt 10 kg/ha. Als Kontrolle dienen Pflanzen, behandelt mit einem Verdünner ohne Sterilisationsmittel.

[7] = tested on: Winterweizens Sorte Bezostaya 1; assay: Field test of pollen sterilisation, winter wheat Bezostaya 1; type: in vivo, Winterweizen; details: 2% aqueous emulsion, 16 kg/ha; for Prozentsatz der Sterilität / Anzahl von Körnern der Ähre bei freier Bestäubung / Anzahl von Körnern der Ähre im Isolator: period V of organogenesis; for Anzahl von Körnern der Ähre bei freier Bestäubung: free pollination; for Anzahl von Körnern der Ähre im Isolator: isolated ears; for Prozentsatz des Ansetzens von Körnern bei breier Bestäubung: period V, non-isolated control ears = 100%
Source text: Pflanzen des Winterweizens Sorte Bezostaya 1 werden in der V. Periode der Organogenese durch Zerstäubung einer 2%igen wässrigen Emulsion von N-(2-Dimethylaminoäthyl)-maleaminsäure, N-(3-Dimethylaminopropyl)-maleaminsäure, N-Äthylmaleaminsäure, N-(2-Hydroxyäthyl)-maleaminsäure, N-Karbamoylmaleaminsäure mit Hilfe deiner Rückspritze behandelt. Die Emulsion enthält 0,1 Masse% Kalziumalkylbenzolsulfonat mit 12 bis 14 Kohlenstoffatomen. Als Adjuvans führt man in die Emulsion 0,01 Masse% Tetrahydrofuran ein.
Der Verbrauch an Präparat beträgt 16 kg/ha. Als Kontrolle dienen Pflanzen, behandelt mit einem Verdünner ohne Sterilisationsmitteln.

[8] = tested on: tetraploidem Roggen Sorte Belta; assay: Field test of pollen sterilisation, tetraploid rye Belta; type: in vivo; details: 1% aqueous emulsion, 10 kg/ha; for Prozentsatz der Sterilität / Anzahl von Körnern der Ähre bei freier Bestäubung / Anzahl von Körnern der Ähre im Isolator: period V of organogenesis; for Anzahl von Körnern der Ähre bei freier Bestäubung: free pollination; for Anzahl von Körnern der Ähre im Isolator: isolated ears; for Prozentsatz des Ansetzens von Körnern bei freier Bestäubung: period V, non-isolated control ears = 100%
Source text: as §6, §2, §3, §4, §5
Pflanzen von tetraploidem Roggen Sorte Belta werden in der V. Periode der Organogenese (nach Kupermann) mit einer 1%igen wässrigen Emulsion von N-(2-Dimethylamino- .äthyl)maleaminsäure, N-(3-Dimethylaminopropyl)maleaminsäure, N-Äthylmaleaminsäure, N-(2-Hydroxyäthyl)maleaminsäure bzw. Karbamoylmaleaminsäure behandelt. Die Emulsion enthält 0,5 Masse% Kalziumalkylbenzolsulfonat mit 12 bis 14 Kohlenstoffatomen und 0,01 Masso% Tetrahydrofuran. Der Verbrauch an Präparat beträgt 10 kg/ha. Die Prüfergebnisse sind in der Tabelle 5 dargestellt. […] Periode der Organogenese erhalten.

[9] = tested on: diploidem Roggen Sorte Chulpan; assay: Field test of pollen sterilisation, diploid rye Chulpan; type: in vivo; details: 1% aqueous emulsion, 8 kg/ha; for Prozentsatz der Sterilität / Anzahl von Körnern der Ähre bei freier Bestäubung / Anzahl von Körnern der Ähre im Isolator: period V of organogenesis; for Anzahl von Körnern der Ähre bei freier Bestäubung: free pollination; for Anzahl von Körnern der Ähre im Isolator: isolated ears; for Prozentsatz des Ansetzens von Körnern bei freier Bestäubung: period V, non-isolated control ears = 100%
Source text: as §7
Die Emulsion enthält 0,01 Masse% Tetranydrofuran und 0,1 Masse% Kalziumalkylbenzolsulfonat mit 12 bis 14 Kohlenstoffatomen. Der Verbrauch an Präparat beträgt 8 kg/ha. Als Kontrolle dienen Pflanzen, behandelt mit einem Verdünner ohne Sterilisationsmittel.

[10] = tested on: diploidem Roggen Sorte Voskhod 2; assay: Field test of pollen sterilisation, diploid rye Voskhod 2; type: in vivo; details: 1% aqueous emulsion, 10 kg/ha; for Prozentsatz der Sterilität / Anzahl von Körnern der Ähre bei freier Bestäubung / Anzahl von Körnern der Ähre im Isolator: period V of organogenesis; for Anzahl von Körnern der Ähre bei freier Bestäubung: free pollination; for Anzahl von Körnern der Ähre im Isolator: isolated ears; for Prozentsatz des Ansetzens von Körnern bei freier Bestäubung: period V, non-isolated control ears = 100%
Source text: Die Emulsion enthält 0,1 Masse% Kalziumalkylbenzolsulfonat und 0,01 Masse% Dimethylformamid. Der Verbrauch an Präparat beträgt 10 kg/ha. Als Kontrolle dienen Pflanzen, behandelt mit einem Lösungsmittel ohne Sterilisationsmittel.

[11] = tested on: Winterweizens Sorte Mir.onovskaya 808; assay: Field test of pollen sterilisation (gametocidal activity), winter wheat Mironovskaya 808; type: in vivo, Winterweizen; details: 2% aqueous emulsion, 20 kg/ha; for Prozentsatz der Sterilität / Anzahl von Körnern der Ähre bei freier Bestäubung / Anzahl von Körnern der Ähre im Isolator: period V of organogenesis; for Anzahl von Körnern der Ähre bei freier Bestäubung: free pollination; for Anzahl von Körnern der Ähre im Isolator: isolated ears; for Prozentsatz des Ansetzens von Körnern bei freier Bestäubung: period V, non-isolated control ears = 100%
Source text: Als Emulgierungsmittel wird 0,1 Masse% Kalziumalkylbenzolsulfonat mit 12 bis 14 Kohlenstoffatomen hinzugefügt. Als Adjuvans fährt man in die Emulsion 0,01 Masse% Dimethylsulfoxid ein. Der Verbrauch an Präparat beträgt 20 kg/ha. Als Kontrolle dienen Pflanzen, behandelt mit einem Verdünner ohne Sterilisationsmittel.

[12] = tested on: Tritikale Sorte Prag 109; assay: Field test of pollen sterilisation, triticale Prag 109; type: in vivo; details: 2% aqueous emulsion, 12 kg/ha
Source text: as §1, §2, §3, §4, §5
V.Periode der Organogenese (nach Kupermann) mit einer 2%igen wässrigen Emulsion von N-(3-Dimethylaminopropyl) maleaminsäure, N-Karbamoylmaleaminsäure behandelt. Die Emulsion enthält 0,01 Masse% Tetrahydrofuran […] und 0,1 Masse% Kalziumalkylbenzolsulfonat mit 12 bis 14 Kohlensotffatomen. Der Verbrauch an Präparat beträgt 12 kg/ha. Als Kontrolle dienen Pflanzen, behandelt mit einem Verdünner ohne Sterilisationsmittel.

For `CN(C)CCNC(=O)/C=C\C(=O)O` [Beispiel 1, N-(2-Dimethylaminoäthyl)-maleaminsäure], the “Prozentsatz der Sterilität” value [1] was 99,5%, the “Anzahl von Körnern der Ähre bei freier Bestäubung” value [1] was 51,2 and the “Anzahl von Körnern der Ähre im Isolator” value [1] was 0,2. The “Prozentsatz des Ansetzens von Körnern bei freier Bestäubung” value [1] was 91,1%, the LD50 [2] was 2500 mg/kg and the “Prozentsatz der Sterilität” value [3] was 100,0%. For the same compound, the “Anzahl von Körnern der Ähre bei freier Bestäubung” value [3] was 40,1, the “Anzahl von Körnern der Ähre im Isolator” value [3] was 0,0 and the “Prozentsatz des Ansetzens von Körnern bei freier Bestäubung” value [3] was 89,5%. For the same compound, the “Prozentsatz der Sterilität” value [4] was 97,5%, the “Anzahl von Körnern der Ähre bei freier Bestäubung” value [4] was 29,8 and the “Anzahl von Körnern der Ähre im Isolator” value [4] was 0,7. For the same compound, the “Prozentsatz des Ansetzens von Körnern bei freier Bestäubung” value [4] was 99,0%, the “Prozentsatz der Sterilität” value [5] was 100,0% and the “Anzahl von Körnern der Rispe bei freier Bestäubung” value [5] was 224,8. The “Anzahl von Körnern der Rispe im Isolator” value [5] was 0,0, the “Prozentsatz des Ansetzens von Körnern bei freier Bestäubung” value [5] was 98,9% and the “Prozentsatz der Sterilität” value [6] was 99,3%. For the same compound, the “Anzahl von Körnern der Ähre bei freier Bestäubung” value [6] was 26,8, the “Anzahl von Körnern der Ähre im Isolator” value [6] was 0,2 and the “Prozentsatz des Ansetzens von Körnern bei freier Bestäubung” value [6] was 97,4%. The “Prozentsatz der Sterilität” value [7] was 100,0%, the “Anzahl von Körnern der Ähre bei freier Bestäubung” value [7] was 39,7 and the “Anzahl von Körnern der Ähre im Isolator” value [7] was 0,0. The “Prozentsatz des Ansetzens von Körnern bei breier Bestäubung” value [7] was 92,5%, the “Prozentsatz der Sterilität” value [8] was 100,0% and the “Anzahl von Körnern der Ähre bei freier Bestäubung” value [8] was 48,2. For the same compound, the “Anzahl von Körnern der Ähre im Isolator” value [8] was 0,0, the “Prozentsatz des Ansetzens von Körnern bei freier Bestäubung” value [8] was 88,2% and the “Prozentsatz der Sterilität” value [9] was 99,6%. For the same compound, the “Anzahl von Körnern der Ähre bei freier Bestäubung” value [9] was 50,2, the “Anzahl von Körnern der Ähre im Isolator” value [9] was 0,2 and the “Prozentsatz des Ansetzens von Körnern bei freier Bestäubung” value [9] was 88,4%. For the same compound, the “Prozentsatz der Sterilität” value [10] was 100,0%, the “Anzahl von Körnern der Ähre bei freier Bestäubung” value [10] was 51,2 and the “Anzahl von Körnern der Ähre im Isolator” value [10] was 0,0. The “Prozentsatz des Ansetzens von Körnern bei freier Bestäubung” value [10] was 92,7%, the “Prozentsatz der Sterilität” value [11] was 99,8% and the “Anzahl von Körnern der Ähre bei freier Bestäubung” value [11] was 38,3. The “Anzahl von Körnern der Ähre im Isolator” value [11] was 0,1 and the “Prozentsatz des Ansetzens von Körnern bei freier Bestäubung” value [11] was 89,9%.
With `CN(C)CCCNC(=O)/C=C\C(=O)O` [Beispiel 2, N-(3-Dimethylaminopropyl)-maleaminsäure] the “Prozentsatz der Sterilität” value ([12]; period V of organogenesis) was 100,0%, the “Anzahl von Körnern der Ähre bei freier Bestäubung” value ([12]; period V of organogenesis, free pollination) was 40,3 and the “Anzahl von Körnern der Ähre im Isolator” value ([12]; period V of organogenesis, isolated ears) was 0,0. For the same compound, the “Prozentsatz des Ansetzens von Körnern bei freier Bestäubung” value ([12]; period V, non-isolated control ears = 100%) was 88,0%, the “Prozentsatz der Sterilität” value [1] was 100,0% and the “Anzahl von Körnern der Ähre bei freier Bestäubung” value [1] was 48,0. The “Anzahl von Körnern der Ähre im Isolator” value [1] was 0,0, the “Prozentsatz des Ansetzens von Körnern bei freier Bestäubung” value [1] was 85,4% and the LD50 [2] was > 10000 mg/kg. For the same compound, the “Prozentsatz der Sterilität” value [3] was 100,0%, the “Anzahl von Körnern der Ähre bei freier Bestäubung” value [3] was 42,6 and the “Anzahl von Körnern der Ähre im Isolator” value [3] was 0,0. The “Prozentsatz des Ansetzens von Körnern bei freier Bestäubung” value [3] was 95,1%, the “Prozentsatz der Sterilität” value [4] was 99,7% and the “Anzahl von Körnern der Ähre bei freier Bestäubung” value [4] was 27,7. The “Anzahl von Körnern der Ähre im Isolator” value [4] was 0,1, the “Prozentsatz des Ansetzens von Körnern bei freier Bestäubung” value [4] was 92,0% and the “Prozentsatz der Sterilität” value [5] was 100,0%. For the same compound, the “Anzahl von Körnern der Rispe bei freier Bestäubung” value [5] was 214,5, the “Anzahl von Körnern der Rispe im Isolator” value [5] was 0,0 and the “Prozentsatz des Ansetzens von Körnern bei freier Bestäubung” value [5] was 94,4%. For the same compound, the “Prozentsatz der Sterilität” value [6] was 98,9%, the “Anzahl von Körnern der Ähre bei freier Bestäubung” value [6] was 27,0 and the “Anzahl von Körnern der Ähre im Isolator” value [6] was 0,3. The “Prozentsatz des Ansetzens von Körnern bei freier Bestäubung” value [6] was 98,2%, the “Prozentsatz der Sterilität” value [7] was 100,0% and the “Anzahl von Körnern der Ähre bei freier Bestäubung” value [7] was 40,2. For the same compound, the “Anzahl von Körnern der Ähre im Isolator” value [7] was 0,0, the “Prozentsatz des Ansetzens von Körnern bei breier Bestäubung” value [7] was 93,7% and the “Prozentsatz der Sterilität” value [8] was 100,0%. The “Anzahl von Körnern der Ähre bei freier Bestäubung” value [8] was 47,7, the “Anzahl von Körnern der Ähre im Isolator” value [8] was 0,0 and the “Prozentsatz des Ansetzens von Körnern bei freier Bestäubung” value [8] was 87,0%. For the same compound, the “Prozentsatz der Sterilität” value [9] was 100,0%, the “Anzahl von Körnern der Ähre bei freier Bestäubung” value [9] was 51,6 and the “Anzahl von Körnern der Ähre im Isolator” value [9] was 0,0. The “Prozentsatz des Ansetzens von Körnern bei freier Bestäubung” value [9] was 90,8%, the “Prozentsatz der Sterilität” value [10] was 100,0% and the “Anzahl von Körnern der Ähre bei freier Bestäubung” value [10] was 48,0. For the same compound, the “Anzahl von Körnern der Ähre im Isolator” value [10] was 0,0, the “Prozentsatz des Ansetzens von Körnern bei freier Bestäubung” value [10] was 87,0% and the “Prozentsatz der Sterilität” value [11] was 99,8%. The “Anzahl von Körnern der Ähre bei freier Bestäubung” value [11] was 41,5, the “Anzahl von Körnern der Ähre im Isolator” value [11] was 0,1 and the “Prozentsatz des Ansetzens von Körnern bei freier Bestäubung” value [11] was 97,4%.
